Structures can show the parent of a compound that is named as a salt. Where two headings read alike, the source gives them in different places. One block for each compound: values may come before it.
Legend:
[1] = acute oral lethality (LD50) in rat; conditions: in vivo, p.o.
[2] = system: Mouse; test: anticonvulsant activity, Maximal Electroshock Test (MES); type: in vivo; conditions: for ED50: ip, Mouse, Maximal Electroshock Test
Description: | ^(a) Maximal Electroshock Test (Woodbury and Davenport, Arch. Int. | Pharmacodyn. Ther., 92, 97-107 (1952).

[3] = system: Rat; conditions: in vivo; for Muscle Tone Decrease ED min.: ip
[4] = system: Mouse; conditions: in vivo; for Loss of Righting Reflex ED min.: ip
[5] = antagonism of apomorphine-induced aggression (antiaggressive activity); conditions: rat, in vivo, po
[6] = system: apomorphine-induced aggression; test: as above; conditions: for ED50: Rattus norvegicus
[7] = acute lethality (LD50) in male mice; conditions: mouse, in vivo
[8] = system: muricidal behaviour; test: inhibition of instinctive muricidal (mouse killing) behaviour; type: in vivo, rat; conditions: rats
[9] = system: locomotor activity of d-amphetamine; test: potentiation of locomotor activity of d-amphetamine; type: in vivo; conditions: in words
[10] = side-effects such as sedation, catalepsy and extrapyramidal dysfunction; type: in vivo; conditions: in words
[11] = system: anti-histamine activity; test: anti-histamine activity; conditions: in words
[12] = system: apomorphine induced stereotyped behaviour; test: apomorphine induced stereotyped behaviour; type: in vivo; conditions: rat; in words
[13] = system: anti-cholinergic activity; test: anti-cholinergic activity; conditions: in words
[14] = po, read-out: Antiaggressive ED50

Structure (SMILES): CN1CCN(CCCn2c3ccccc3c3ccccc32)CC1 [compound B, 9-[3-(4-methylpiperazino)propyl]carbazole, reference compound]
- LD50 [1]: 830 mg/kg
- level of anticonvulsant activity ([2]; assessment in words): marginal
- ED50 [2]: 20 mg/kg
- dose at which muscle tone decrease is observed relative to the "Carbazole" [3]: much lower dose
- Muscle Tone Decrease ED min. [3]: 50 mg/kg
- Loss of Righting Reflex ED min. [4]: 50 mg/kg
- selectivity ratio [5]: 11
- ED50 [6, 14]: 75 mg/kg

Structure (SMILES): C[C@@H]1CN(CCCn2c3ccccc3c3ccccc32)C[C@H](C)N1 [Example 1, 9-[3-(3,5-cis-Dimethylpiperazino)propyl]carbazole dihydrochloride hemihydrate]
- LD50 [1]: 957 mg/kg
- ED50 [2]: 43 mg/kg
- LD50 ([7]; intravenous, read-out: LD50 intravenous): 31 mg/kg
- LD50 ([7]; oral, read-out: LD50 oral): 977 mg/kg
- Muscle Tone Decrease ED min. [3]: 125 mg/kg
- ED50 ([8]; Rattus norvegicus, ip, intraperitoneal, read-out: ED50 (anti-muricidal)): 15 mg/kg
- Loss of Righting Reflex ED min. [4]: 160 mg/kg
- selectivity ratio [5]: 20
- ED50 ([6]; ip, read-out: ED50 (anti-aggressive)): 12.5 mg/kg
- ED50 [6, 14]: 48 mg/kg

- Loss of Righting Reflex ED min. [4]: > 100 mg/kg
Structure (SMILES): O=C1NC(=O)C(c2ccccc2)(c2ccccc2)N1 [Phenytoin]
- ED50 [2]: 8.5 mg/kg
- anticonvulsant activity relative to the "Carbazole" (cpd. A) ([2]; phenytoin vs cpd. A): 5 times
- anticonvulsant activity relative to cpd. B ([2]; phenytoin vs cpd. B): ~2.5 times

Structure (SMILES): C[C@@H]1CN(CCCn2c3ccccc3c3ccccc32)C[C@H](C)N1 [Carbazole, 9-[3-(3,5-cis-dimethylpiperazino)propyl]carbazole]
- potentiation of the locomotor activity of d-amphetamine [9]: potentiates the locomotor activity of d-amphetamine
- undesirable side-effects such as sedation, catalepsy and extrapyramidal dysfunction [10]: substantially free from undesirable side-effects
- anti-histamine activity relative to phenothiazines [11]: significantly less
- anticonvulsant activity of the "Carbazole" relative to cpd. B ([2]; in words): less than half the anticonvulsant activity of cpd. B
- suppression of instinctive muricidal (mouse killing) behaviour ([8]; in words): suppress the instinctive muricidal (i.e. mouse killing) behaviour
- antagonism of apomorphine induced stereotyped behaviour [12]: failure to antagonise apomorphine induced stereotyped behaviour
- minimum dose for loss of righting reflex relative to compound B [4]: about three times that of compound B
- potency of anti-aggressive and anti-psychotic properties relative to non-methylated, 4-methyl, 3,4,5-trimethyl and 3,5-trans-dimethyl compounds ([6]; comparison in words): more potent than either the corresponding non-methylated compound or any of the analogous 4-methyl, 3,4,5-trimethyl or 3,5-trans-dimethyl compounds
- antagonism of apomorphine-induced aggression ([6]; rat, in words): antagonised apomorphine-induced aggression
- anti-cholinergic activity relative to phenothiazines [13]: significantly less

— US4379160A, “Carbazole compounds and medicinal use thereof” (priority 1978, dated 1983)
